Reference: US20110165183A1, “PIPERIDINE DERIVATIVES AS JAK3 INHIBITORS” (BioCryst Pharmaceuticals, Inc., priority 2008, published 2011)

| SMILES | melting point |
| --- | --- |
| C[C@@H]1CCN(C(=O)CC#N)C[C@@H]1N(C)c1ncnc2ccoc12 [Example 2, 3-((3R,4R)-3-(furo[3,2-d]pyrimidin-4-yl(methyl)amino)-4-methylpiperidin-1-yl)-3-oxopropanenitrile] | 107.7 °C |
| C[C@@H]1CCN(C(=O)CC#N)C[C@@H]1N(C)c1ncnn2ccnc12 [Example 4, 3-((3R,4R)-3-(Imidazo[1,2-f][1,2,4]triazin-4-yl(methyl)amino)-4-methylpiperidin-1-yl)-3-oxopropanenitrile] | 72 °C |
| Cc1cc(N(C)[C@H]2CN(C(=O)CC#N)CC[C@H]2C)n2ncnc2n1 [Example 8, 3-((3R,4R)-4-Methyl-3-(methyl(5-methyl-1,2,41-triazolo[1,5-a]pyrimidin-7-yl)amino)piperidin-1-yl)-3-oxopropanenitrile] | 119.3 °C |

Other lines, results leading:

| melting point | SMILES |
| --- | --- |
| 74.3 °C | C[C@@H]1CCN(C(=O)CC#N)C[C@@H]1N(C)c1ncnc2sccc12 [Example 9, 3-((3R,4R)-4-methyl-3-(methyl(thieno[2,3-d]pyrimidin-4-yl)amino)piperidin-1-yl)-3-oxopropanenitrile] |
| 103.4 °C | C[C@@H]1CCN(c2ncnn3cccc23)C[C@@H]1N(C)c1ncnn2cccc12 [Example 17, N-Methyl-N-((3R,4R)-4-methyl-1-(pyrrolo[1,2-f][1,2,4]triazin-4-yl)piperidin-3-yl)pyrrolo[1,2-f][1,2,4]triazin-4-amine] |
| 126.9 °C | C[C@@H]1CCNC[C@@H]1N(C)c1nccc2[nH]ccc12 [Example 18, N-Methyl-N-((3R,4R)-4-methylpiperidin-3-yl)-1H-pyrrolo[3,2-c]pyridin-4-amine] |
